No end group written: not given here.
Molecular target: immobilized STAT3 (Homo sapiens, UniProt P40763)
Assay: Static adsorption equilibrium assay, immobilized STAT3
Format: binding
Details: immobilized STAT3 85 nmol g^−1 wet gel; peptide 2-20 µM in PBS, stirred 12 h; free peptide by NanoDrop absorbance 240 nm; Langmuir isotherm; mean ± SD; read-out: equilibrium dissociation constant KD
From the text: Considering that the SH2 domain predominantly represents the inhibition of SHF on STAT3 dimerization and activity, we speculated that this domain may be an optional target for GBM suppression. To this end, we analyzed the mechanical interaction of SHF and STAT3. The structures of human SHF (aa265‐421) and STAT3 (aa130‐715). both of which spanned their respective SH2 domain. were simulated by Swiss‐Model server (https://swissmodel.expasy.org/). To simulate the interaction of SHF and STAT3, Discovery studio 2018 was employed to complete protein‐protein docking using ZDOCK as an initial stage. A rigid body molecular docking algorithm utilizing a fast Fourier transform (FFT) algorithm was used to further improve performance for searching in translational space. All the available structures from PDB were used to calculate the docking poses and the structures obtained were subjected to energy minimization filtration using the smart minimize algorithm (Max steps 200, RMS gradient 0.01). The highest resulting ZDock score was used as the appropriate conformational pose. […] Since these two spots are located closely to one another, the sequence spanning amino acids 388–421 was used as a peptide design master. To obtain a peptide with high internalization efficiency and a strong half‐life, we introduced a palmitic acid at the N‐terminus of the master sequence and amidated the C‐terminus. The designed peptide was named C16. A scrambled peptide containing a scrambled sequence targeting Spot1 was named SC and served as a negative control peptide. […] The static adsorption equilibrium experiment of immobilized STAT3 peptide was used to detect the binding rate of the synthesized peptide with STAT3 (Figure 7C). The concentration of immobilized STAT3 used was 85 nmol g^−1 wet gel. […] Thus, C16 acted as a powerful inhibitor of STAT3 dimerization and associated activity. Next, we determined the implication of C16 in tumor inhibition. […] A concentration of 25 uM was determined to be adequate for use in the subsequent experiments. […] Further, the impact of C16 on tumor propagation was examined in an intracranial xenograft model. U87 cells expressing luciferase were implanted into mouse brains. The mice were injected intraperitoneally (i.p.) with C16 or SC once every 2 days from the third day after cell transplantation. […] To investigate the effect of C16 on cell proliferation, EdU was injected 24 h prior to sacrifice.
Figure 7 Peptide derived from the STAT3‐binding sites of SHF is an effective GBM suppressive strategy. A) Binding model between SHF and STAT3 using ZDOCK server. […] B) IF staining determined the cell penetrability and nuclear‐localization of C16. U251 cells were incubated with C16 or SC for 2 h and performed IF staining using the indicated antibodies. Bars, 10 µm. C) The statical analysis of adsorption equilibrium assay detecting the binding of C16 and SC with recombinant STAT3. D) Pull‐down assay indicating C16 binds STAT3. GST‐STAT3 was incubated with C16 or SC for 2 h, and the pull‐down assay was performed using Anti‐His magnetic beads. E) IP assay showing the effect of C16 on STAT3 dimerization. 293T cells transfected with indicated vectors were incubated with C16 for 2 h. The relative quantification of STAT3 dimerization was listed. F) IP assay detecting the effect of C16 on the interaction of STAT3 and DNMT1. […] The relative quantification of STAT3/DNMT1 interaction was listed. […] The relative quantification of STAT3/DNMT1 interaction was listed. […]

Sequence of immobilized STAT3 (P40763 whole entry): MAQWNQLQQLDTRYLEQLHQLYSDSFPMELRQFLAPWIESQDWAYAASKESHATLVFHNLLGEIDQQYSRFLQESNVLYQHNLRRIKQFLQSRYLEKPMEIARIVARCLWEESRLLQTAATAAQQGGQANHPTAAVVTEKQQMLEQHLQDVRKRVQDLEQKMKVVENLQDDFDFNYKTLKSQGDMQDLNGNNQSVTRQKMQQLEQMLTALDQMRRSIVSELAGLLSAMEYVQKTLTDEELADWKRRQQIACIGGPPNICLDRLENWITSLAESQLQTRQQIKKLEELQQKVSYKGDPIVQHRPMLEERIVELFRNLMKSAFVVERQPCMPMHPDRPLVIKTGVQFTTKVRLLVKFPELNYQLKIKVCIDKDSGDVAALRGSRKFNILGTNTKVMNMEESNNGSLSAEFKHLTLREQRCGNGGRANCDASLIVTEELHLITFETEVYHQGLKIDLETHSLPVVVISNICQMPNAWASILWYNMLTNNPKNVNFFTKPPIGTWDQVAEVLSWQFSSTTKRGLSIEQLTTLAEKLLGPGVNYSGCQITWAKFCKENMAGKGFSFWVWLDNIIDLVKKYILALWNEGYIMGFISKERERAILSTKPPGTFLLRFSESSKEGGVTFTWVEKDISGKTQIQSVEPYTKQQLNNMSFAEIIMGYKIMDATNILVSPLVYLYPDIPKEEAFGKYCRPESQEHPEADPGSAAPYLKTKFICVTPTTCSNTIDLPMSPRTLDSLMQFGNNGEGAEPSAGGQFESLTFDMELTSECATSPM

In the case of “PASSNCEIVPMYHIRKLPIKGAEHMSLLYPVAIR [SC, reference compound]”, the Kd is reported as 4.08 ± 0.63 µM.

— paper PMC9475553, “SHF Acts as a Novel Tumor Suppressor in Glioblastoma Multiforme by Disrupting STAT3 Dimerization” (Advanced Science, 2022)
